Source: patent publication US20220281825A1 (priority 2016, published 2022)

Experiments:
[1] = in vitro; conditions: African green monkey
[2] = test system: JUNV-p; test: organism not typed; assay type: cell-based, Junin (JUNV); conditions: Vero, 24 h, read-out: JUNV-p EC50 (nM)
[3] = test system: MACV-p; test: organism not typed; assay type: cell-based, Machupo (MACV); conditions: Vero, 24 h, read-out: MACV-p EC50 (nM)
[4] = test system: LASV-p; test: organism not typed; assay type: cell-based, Lassa (LASV); conditions: Vero, 24 h, read-out: LASV-p EC50 (nM)
[5] = test system: TCRV-p; test: organism not typed; assay type: cell-based; conditions: Vero, 24 h, read-out: TCRV-p EC50 (nM)

Structure (SMILES) | CC50 [1] [µM] | EC50 [2] [nM] | EC50 [3] [nM] | EC50 [4] [nM] | EC50 [5] [nM]
COc1ccc(-n2cnc3ccc(-c4ccccc4OC)cc32)cc1 [Example A5, 6-(2-methoxyphenyl)-1-(4-methoxyphenyl)-1H-1,3-benzodiazole] | < 0.3 | > 25 | > 25 | > 25 | > 25
COc1ccc(-n2cnc3ccc(-c4ccc(CO)cc4)cc32)cc1 [Example A10, {4-[1-(4-methoxyphenyl)-1H-1,3-benzodiazol-6-yl]phenyl}methanol] | 4.56 | > 25 | > 25 | 21.8 | > 25
CC(C)Oc1ccc(-n2ncc3ccc(-c4ccc5[nH]ccc5c4)cc32)cc1 [Example D2, 6-(1H-indol-5-yl)-1-[4-(propan-2-yloxy)phenyl]-1H-indazole] | 4.34 | 17.8 | 22.5 | 7.99 | > 25
CC(C)Oc1ccc(-c2cnc3ccc(-c4ccc(C(F)F)cc4)cn23)cc1 [Example C5, 6-[4-(difluoromethyl)phenyl]-3-[4-(propan-2-yloxy)phenyl]imidazo[1,2-a]pyridine] | 4.69 | 9.09 | 31.4 | 4.1 | > 25
CC(C)Oc1ccc(-n2cnc3cnc(-c4ccc5[nH]ccc5c4)nc32)cc1 [Example B11, 2-(1H-indol-5-yl)-9-[4-(propan-2-yloxy)phenyl]-9H-purine] | 24.2 | 25 | 25 | 6.4 | > 25
CC(C)Oc1ccc(-c2ccn3cnc(-c4ccc(OC(C)C)cc4)c3c2)cc1 [Example D19, 1,7-bis[4-(propan-2-yloxy)phenyl]imidazo[1,5-a]pyridine] | 7.54 | > 25 | > 25 | > 25 | > 25
CC(C)Oc1ccc(-c2cnc3ccc(-c4ccc5[nH]ncc5c4)cn23)cc1 [Example C10, 5-{3-[4-(propan-2-yloxy)phenyl]imidazo[1,2-a]pyridin-6-yl}-1H-indazole] | > 0.1 | 19 | 28.9 | 4.61 | > 25
CC(C)Oc1ccc(-n2cnc3cnc(-c4ccc(C(C)(C)O)cc4)nc32)cc1 [Example B9, 2-(4-{9-[4-(propan-2-yloxy)phenyl]-9H-purin-2-yl}phenyl)propan-2-ol] | 27.7 | 11.9 | 29.7 | 19.7 | > 25
CC(=O)c1ccc(-c2ccc3nnn(-c4ccc(OC(C)C)cc4)c3c2)cc1 [Example B14, 1-(4-{1-[4-(propan-2-yloxy)phenyl]-1H-1,2,3-benzotriazol-6-yl}phenyl)ethan-1-one] | 7.39 | 1.36 | 15.4 | 1.05 | > 25
CC(C)Oc1ccc(-c2ccc3nc(C(N)=O)c(-c4ccc(OC(C)C)cc4)n3c2)cc1 [Example D22, 3,6-bis[4-(propan-2-yloxy)phenyl]imidazo[1,2-a]pyridine-2-carboxamide] | 49.5 | > 25 | > 25 | > 25 | > 25
COCCOc1ccc(-c2cnc3ccc(-c4ccc(OC(C)C)cc4)cn23)cc1 [Example C42, 3-[4-(2-methoxyethoxy)phenyl]-6-[4-(propan-2-yloxy)phenyl]imidazo[1,2-a]pyridine] | 5.36 | 2.6 | 23.1 | 3.08 | 11.7
CC(C)Oc1ccc(-c2ccc3nc(C#N)c(-c4ccc(OC(C)C)cc4)n3c2)cc1 [Example D23, 3,6-bis[4-(propan-2-yloxy)phenyl]imidazo[1,2-a]pyridine-2-carbonitrile] | > 100 | 3.78 | > 25 | 27.4 | > 25
CC(C)Oc1ccc(-c2ccc3ncn(-c4ccc5[nH]ccc5c4)c3c2)cc1 [Example A27, 1-(1H-indol-5-yl)-6-[4-(propan-2-yloxy)phenyl]-1H-1,3-benzodiazole] | 3.86 | 0.39 | 0.38 | 0.6 | 2.57
COc1ccc(-n2cnc3ccc(-c4ccc(O)cc4)cc32)cc1 [Example A13, 4-[1-(4-methoxyphenyl)-1H-1,3-benzodiazol-6-yl]phenol] | 1.27 | > 25 | > 25 | 5 | > 25
CC(C)Oc1ccc(-c2cn3c(-c4ccc5[nH]ccc5c4)cnc3cn2)cc1 [Example D13, 5-{6-[4-(propan-2-yloxy)phenyl]imidazo[1,2-a]pyrazin-3-yl}-1H-indole] | > 100 | 3.29 | 12 | 12.3 | 10.3
CC(C)Oc1ccc(-n2cnc3cnc(-c4ccc5[nH]ccc5c4)cc32)cc1 [Example B7, 5-{1-[4-(propan-2-yloxy)phenyl]-1H-imidazo[4,5-c]pyridin-6-yl}-1H-indole] | 13.9 | 16.2 | 24.1 | 8.18 | > 25
COc1ccc(-n2cnc3ccc(-c4ccc(N5CCCCC5)cc4)cc32)cc1 [Example A15, 1-(4-methoxyphenyl)-6-[4-(piperidin-1-yl)phenyl]-1H-1,3-benzodiazole] | 12.9 | 2.23 | 24.9 | 14.7 | 29.6
COc1ccc(-n2cnc3ccc(-c4ccc(C#N)cc4)cc32)cc1 [Example A4, 4-[1-(4-methoxyphenyl)-1H-1,3-benzodiazol-6-yl]benzonitrile] | < 0.3 | > 25 | > 25 | > 25 | > 25
CC(C)Oc1ccc(-c2nnc3ccc(-c4ccc5[nH]ccc5c4)cn23)cc1 [Example D7, 5-{3-[4-(propan-2-yloxy)phenyl]-[1,2,4]triazolo[4,3-a]pyridin-6-yl}-1H-indole] | 1.87 | 18 | > 25 | 4.1 | 26.3
COc1ccc(-n2cnc3ccc(-c4cccc(C(C)C)c4)cc32)cc1 [Example A1, 1-(4-Methoxyphenyl)-6-[3-(propan-2-yl)phenyl]-1H-1,3-benzodiazole] | 12.9 | > 100 | > 100 | 31.7 | > 100
COc1ccc(-n2cnc3ccc(-c4ccc(C(C)C)cc4)cc32)cc1 [Example A2, 1-(4-methoxyphenyl)-6-[4-(propan-2-yl)phenyl]-1H-1,3-benzodiazole] | 25.6 | > 100 | > 100 | 6.6 | > 100
CC(C)Oc1ccc(-n2ccc3ccc(-c4ccc5[nH]ccc5c4)cc32)cc1 [Example D5, 6-(1H-indol-5-yl)-1-[4-(propan-2-yloxy)phenyl]-1H-indole] | 0.00587 | 27.8 | > 25 | 12.5 | > 25
CC(C)Oc1ccc(-c2ccc3noc(-c4ccc(OC(C)C)cc4)c3c2)cc1 [Example D18, 3,5-bis[4-(propan-2-yloxy)phenyl]-2,1-benzoxazole] | > 100 | 5.58 | > 25 | > 25 | > 25
CC(=O)c1ccc(-c2ccc3ncn(-c4ccc(OC(C)C)cc4)c3n2)cc1 [Example B4, 1-(4-{3-[4-(propan-2-yloxy)phenyl]-3H-imidazo[4,5-b]pyridin-5-yl}phenyl)ethan-1-one] | 19.7 | 4.31 | 18.6 | 0.956 | 14.9
CC(C)Oc1ccc(-n2cnc3ccc(-c4ccc(N5CCOCC5)cc4)cc32)cc1 [Example A21, 6-[4-(morpholin-4-yl)phenyl]-1-[4-(propan-2-yloxy)phenyl]-1H-1,3-benzodiazole] | 5.22 | 3.5 | 14.4 | 3.07 | > 25
CC(C)Oc1ccc(-c2ccc3ncc(-c4ccc(C5(O)CC5)cc4)n3c2)cc1 [Example C44, 1-(4-{6-[4-(propan-2-yloxy)phenyl]imidazo[1,2-a]pyridin-3-yl}phenyl)cyclopropan-1-ol] | > 0.1 | 0.07 | 0.32 | 0.23 | 0.135
COc1ccc(-n2cnc3ccc(-c4ccc(C(C)=O)cc4)cc32)cc1 [Example A14, 1-{4-[1-(4-methoxyphenyl)-1H-1,3-benzodiazol-6-yl]phenyl}ethan-1-one] | 1.95 | > 25 | > 25 | 7.4 | > 25
CC(C)Oc1ccc(-n2cnc3ccc(-c4ccc5[nH]ccc5c4)nc32)cc1 [Example B3, 5-{3-[4-(propan-2-yloxy)phenyl]-3H-imidazo[4,5-b]pyridin-5-yl}-1H-indole] | > 100 | 1.79 | 10.3 | 1.01 | 27.7
CC(=O)c1ccc(-c2cc3c(cn2)ncn3-c2ccc(OC(C)C)cc2)cc1 [Example B8, 1-(4-{1-[4-(propan-2-yloxy)phenyl]-1H-imidazo[4,5-c]pyridin-6-yl}phenyl)ethan-1-one] |  | > 25 | > 25 | > 25 | > 25
CC(=O)c1ccc(-c2cnc3cnc(-c4ccc(OC(C)C)cc4)cn23)cc1 [Example D14, 1-(4-{6-[4-(propan-2-yloxy)phenyl]imidazo[1,2-a]pyrazin-3-yl}phenyl)ethan-1-one] |  | 13.5 | 25 | 6.77 | 20.2
